# Assay results: article PMC10886891, “Enhanced Tumor Targeting and Antitumor Activity of Methylated β-Cyclodextrin-Threaded Polyrotaxanes by Conjugating Cyclic RGD Peptides” (Biomolecules, 2024)
# Legend:
# [1] = test system: 4T1 cells; experiment: Autophagic cell death: viability of 4T1 cells with 3-MA; format: cell-based, murine; settings: 2 mM 3-MA, 48 h
# Experimental: To investigate the induction of autophagic cell death by cRGD-Me-PRXs, 4T1cells were pretreated with 2 mM 3-methyladenine (3-MA; Fujifilm Wako Pure Chemical) for 1 h, followed by treatment with cRGD-Me-PRXs (100 μM threaded β-CD) in the presence of 3-MA for 48 h at 37 °C. Cell viability was determined as described above.
# [2] = test system: integrin αv (Itgav) mRNA in 4T1 cells; experiment: Downregulation of integrin αv by siRNA (RT-PCR); format: cell-based, murine; settings: compared with siControl; 30 nM, 24 h, normalized to Gapdh, n = 4
# Experimental: siRNAs against murine integrin subunit alpha V (siItgav; sense: 5′-[…]-3′, antisense: 5′-[…]-3′) and Mission siRNA universal negative control were purchased from Merck. The siRNAs were transfected into 4T1 cells using the Lipofectamine 3000 Transfection Reagent (Thermo Fisher Scientific) at 30 nM for 24 h according to the manufacturer’s instructions. Total RNA was extracted from 4T1 cells using the FastGene RNA Premium Kit (Nippon Genetics, Tokyo, Japan) following the manufacturer’s instructions. The total RNA concentration was measured using a NanoDrop One spectrophotometer (Thermo Fisher Scientific). Total RNA was then converted into cDNA using ReverTra Ace qPCR RT master mix (Toyobo, Osaka, Japan). RT-PCR was performed using the Thunderbird SYBR qPCR mix (Toyobo) on a CFX Connect Real-Time System (Bio-Rad, Hercules, CA, USA). The PCR primer sequences were as follows: murine integrin subunit alpha V (Itgav), forward: 5′-[…]-3′, reverse: 5′-[…]-3′, murine glyceraldehyde 3-phosphate dehydrogenase (Gapdh) forward: 5′-[…]-3′, reverse: 5′-[…]-3′. The PCR cycling conditions included a pre-denaturation at 95 °C for 1 min, followed by 40 cycles of denaturation at 95 °C for 15 s and extension at 60 °C for 30 s. The mRNA expression levels in each sample were determined by the comparative CT (ΔΔCT) method and were normalized to the expression levels of Gapdh.
# [3] = Cholesterol solubilization (phase solubility); format: physicochemical; settings: pH 7.4, 24 h, 37 °C, n = 3
# Experimental: Figure 2 (A) ^1H NMR spectra of Me- N3-PRX and cRGD-Me-PRX in D2O at 25 °C. (B) FT-IR spectra of Me-N3-PRX and cRGD-Me-PRX. (C) Time course of the cleavage of N-Trt end groups in Me-PRX, cRGD-Me-PRX, and cRGE-Me-PRX at pH 7.4 (open symbols) and pH 5.0 (closed symbols) at 37 °C. The data are expressed as the mean ± SD (n = 3). (D) Phase-solubility diagrams of cholesterol with Me-β-CD, cRGD-Me-β-CD, Me-PRX, cRGD-Me-PRX, and cRGE-Me-PRX at pH 7.4 (brown bars) and pH 5.0 (blue bars). The solubility of cholesterol was determined after incubation for 24 h at 37 °C. The data are expressed as the mean ± SD (n = 3; **** p < 0.0001; ns: not significant).
# Another important aspect of Me-PRXs is the ability of released β-CDs to form an inclusion complex with intracellular cholesterol, because the interaction with intracellular cholesterol contributes to the induction of cell death. To assess this, the solubility of cholesterol was measured by incubating with Me-PRXs at pH 7.4 (physiological pH) and 5.0 (lysosomal pH) for 24 h was measured (Figure 2D). […] Additionally, the number of methyl groups of cRGD-Me-β-CD (12.5) was less than that of Me-β-CD (14.0), which may explain the reduced cholesterol solubilization capacity.
# [4] = Biodistribution in 4T1 tumor-bearing mice; format: in vivo, BALB/c mice; settings: 24 h after i.v., Cy5.5-labeled; 500 mg/kg (Figure 7), 300 mg/kg; n = 6
# Experimental: Animal experiments were approved by the Institutional Animal Care and Use Committee of Tokyo Medical and Dental University. Wild-type BALB/c mice (female, 8-weeks-old) were purchased from Japan SLC (Shizuoka, Japan). Cy5.5-labeled PRXs and CDs were intravenously administered to the mice at a dose of 300 mg/kg. After 24 h, the mice were anesthetized with an intraperitoneal injection of an anesthetized solution containing medetomidine hydrochloride (0.75 mg/kg), midazolam (4 mg/kg), and butorphanol tartrate (5 mg/kg). […] The mice were then perfused with saline, and the hearts, livers, lungs, spleens, kidneys, and tumors were harvested. The collected tissues (approximately 50 mg) were homogenized using a bead beater-type homogenizer (Beads Crusher μT-12; Taitec, Saitama, Japan) at 3000 rpm for 45 s. After centrifuging the homogenates (8000 rpm, 10 min), the supernatant was collected. The fluorescence intensities of the plasma and tissue homogenates were measured using Varioskan LUX at excitation and emission wavelengths of 673 and 707 nm, respectively. The amount of accumulated PRXs in the plasma and each tissue was calculated using the standard curve of Cy5.5-labeled Me-PRXs and Me-β-CDs, and the mean percentage of the injected dose per gram of tissue (ID %/g tissue) was determined for each sample.
# [5] = among various β-CD derivatives; cited from earlier work
# Text: Β-Cyclodextrin (β-CD) is a cyclic oligosaccharide comprising seven glucose units connected with α-1,4-linkages. Β-CD and its derivatives can incorporate various low-molecular-weight compounds, such as free cholesterol, into their hydrophobic cavity. Recently, the therapeutic applications of β-CD derivatives have received considerable attention, because they improve the pathology of various metabolic diseases, such as Niemann–Pick type C (NPC) disease, Alzheimer’s disease, and atherosclerosis, through the removal of excess free ch ...
# [6] = test system: various cells, such as normal cells and apoptosis-resistant cells; settings: through interactions with cellular cholesterol; cited from earlier work
# Text: Β-Cyclodextrin (β-CD) is a cyclic oligosaccharide comprising seven glucose units connected with α-1,4-linkages. Β-CD and its derivatives can incorporate various low-molecular-weight compounds, such as free cholesterol, into their hydrophobic cavity. […] 3-Methyladenine (3-MA) is a commonly used inhibitor of autophagy that functions by inhibiting class III phosphoinositide 3-kinase (PI3K) activity, which plays a pivotal role in autophagy induction. […] To exclude the effects of 3-MA on 4T1 cell viability, cRGD-Me-PRX-t ...
# [7] = Blood chemical analysis; format: in vivo, BALB/c mice; settings: 500 mg/kg i.v., 24 h
# Experimental: The PRXs dissolved in PBS were intravenously administered at a dose of 500 mg/kg to female BALB/c mice (8 weeks). […] Plasma levels of blood urea nitrogen (BUN), creatinine (CRE), aspartate aminotransferase (AST), alanine aminotransferase (ALT), free cholesterol (F-CHO), cholesteryl esters (E-CHO), triglycerides (TG), and glucose (GLU) were measured using a Hitachi 7180 automatic analyzer (Hitachi, Tokyo, Japan). In addition, the mice were perfused with saline, and the major organs (heart, liver, spleen, lungs, and kidneys) were collected. The organs were fixed in 10% formalin solution for 1 d and embedded in paraffin. The paraffin blocks were cut into 3 μm sections, which were successively stained with H&E solution to assess histological alterations by bright-field microscope.
compound,measurement,setting,value
"Cn1cnc(N)c2ncnc1-2 [3-MA, 3-methyladenine]",effect on 4T1 cell viability alone,[1],did not affect cell viability
"siItgav: siRNA against murine integrin subunit alpha V; sense: 5′-GACUUAGUUGUAGGAGCUU-3′, antisense: 5′-AAGCUCCUACAACUAAGUC-3′ (chemistry not given here)",expression level of integrin αv,[2],32.9%
Randomly methylated β-CD [Me-β-CD],solubilization of cholesterol,[3],solubilization of cholesterol was observed
same,accumulation in kidney,[4],mostly accumulated in the kidney
same,ability to form inclusion complexes with free cholesterol,[5],highest ability to form inclusion complexes with free cholesterol
same,apoptosis,[6],induced apoptosis
same,hepatic and renal toxicity,[7],hepatic and renal toxicities
same,plasma AST,[7]; n = 6,increased
same,plasma BUN,[7]; n = 6,increased
same,plasma CRE,[7]; n = 6,increased
